Assay results: US12146004B2, “Polymyxin compounds and uses thereof” (priority 2014, dated 2024)
Converted amounts (≈) assume the structure as drawn.

Columns and labels:
Format in all cases: cell-based
Klebsiella pneumoniae = system: Klebsiella pneumoniae
In short: (§1)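 Susceptibility testing covered up to nine strains of each Gram-negative pathogen, among them resistant strains and strains with elevated MICs to Polymyxin. Values are MICs in μg/mL.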

Escherichia coli = system: Escherichia coli
In short: as §1

Pseudomonas aeruginosa = system: Pseudomonas aeruginosa
In short: as §1

Acinetobacter baumannii = system: Acinetobacter baumannii
In short: as §1

HK-2 cells = system: HK-2 cells
Text: Values are reported relative to Polymyxin B.

| SMILES | MIC K. pneumoniae 062 (Klebsiella pneumoniae) | MIC K. pneumoniae 063 (Klebsiella pneumoniae) | MIC K. pneumoniae 064 (Klebsiella pneumoniae) | MIC K. pneumoniae 065 (Klebsiella pneumoniae) | MIC K. pneumoniae 066 (Klebsiella pneumoniae) | MIC K. pneumoniae ATCC 4352 (Klebsiella pneumoniae) | MIC E. coli 058 (Escherichia coli) | MIC E. coli 061 (Escherichia coli) | MIC E. coli ATCC 25922 (Escherichia coli) | MIC P. aeruginosa 068 (Pseudomonas aeruginosa) | MIC P. aeruginosa 070 (Pseudomonas aeruginosa) | MIC P. aeruginosa ATCC 27853 (Pseudomonas aeruginosa) | MIC A. baumanii 053 (Acinetobacter baumannii) | MIC A. baumanii 056 (Acinetobacter baumannii) | MIC A. baumanii ATCC BAA-747 (Acinetobacter baumannii) | HK-2 IC50 (HK-2 cells) | MIC P. aeruginosa CCUG 59347 (Pseudomonas aeruginosa) | MIC A. baumanii NCTC 13424 (Acinetobacter baumannii) | MIC K. pneumoniae ATCC 13882 (Klebsiella pneumoniae) | MIC E. coli NCTC 9001 (Escherichia coli) | further results |
| --- | --- | --- | --- | --- | --- | --- | --- | --- | --- | --- | --- | --- | --- | --- | --- | --- | --- | --- | --- | --- | --- |
| CC(C)CC(CN)C(=O)N[C@H](C(=O)N[C@@H](CN)C(=O)N[C@H]1CCNC(=O)[C@H]([C@@H](C)O)NC(=O)[C@H](CCN)NC(=O)[C@H](CCN)NC(=O)[C@H](CC(C)C)NC(=O)[C@@H](Cc2ccc(Br)cc2)NC(=O)[C@H](CCN)NC1=O)C(C)O (single isomer, unassigned; isomer 2) [Example 14, 2-aminomethyl-4-methyl pentanoyl polymyxin L-Thr-L-Dap-polymyxin [D-(4-bromo Phe)]-6]heptapeptide. Isomer 2] | 8 µg/mL (≈ 6.93 µM) | 64 µg/mL (≈ 55.4 µM) | 8 µg/mL (≈ 6.93 µM) | 8 µg/mL (≈ 6.93 µM) | 8 µg/mL (≈ 6.93 µM) | 0.25 µg/mL (≈ 0.216 µM) | 4 µg/mL (≈ 3.46 µM) | 16 µg/mL (≈ 13.9 µM) | 0.25 µg/mL (≈ 0.216 µM) | 8 µg/mL (≈ 6.93 µM) | 16 µg/mL (≈ 13.9 µM) | 0.5 µg/mL (≈ 0.433 µM) | 32 µg/mL (≈ 27.7 µM) | 16 µg/mL (≈ 13.9 µM) | 0.125 µg/mL (≈ 0.108 µM) | 76 µg/mL |  |  |  |  | MIC K. pneumoniae 067 (Klebsiella pneumoniae): >64 µg/mL; MIC E. coli 059 (Escherichia coli): 8 µg/mL (≈ 6.93 µM); MIC E. coli 060 (Escherichia coli): 8 µg/mL (≈ 6.93 µM) |
| CC(C)CC(CN)C(=O)N[C@H](C(=O)N[C@@H](CN)C(=O)N[C@H]1CCNC(=O)[C@H]([C@@H](C)O)NC(=O)[C@H](CCN)NC(=O)[C@H](CCN)NC(=O)[C@H](CC(C)C)NC(=O)[C@@H](Cc2ccc(-c3ccccc3)cc2)NC(=O)[C@H](CCN)NC1=O)C(C)O (single isomer, unassigned; isomer 2) [Example 16, 2-aminomethyl-4-methyl pentanoyl polymyxin L-Thr-L-Dap-polymyxin [D-(4-phenyl Phe)]-6]heptapeptide. Isomer 2] | 4 µg/mL (≈ 3.47 µM) | 16 µg/mL (≈ 13.9 µM) | 2 µg/mL (≈ 1.74 µM) | 1 µg/mL (≈ 0.868 µM) | 4 µg/mL (≈ 3.47 µM) | 0.5 µg/mL (≈ 0.434 µM) | 4 µg/mL (≈ 3.47 µM) | 16 µg/mL (≈ 13.9 µM) | 0.25 µg/mL (≈ 0.217 µM) | 4 µg/mL (≈ 3.47 µM) | 8 µg/mL (≈ 6.94 µM) | 0.5 µg/mL (≈ 0.434 µM) | 16 µg/mL (≈ 13.9 µM) | 4 µg/mL (≈ 3.47 µM) | 0.25 µg/mL (≈ 0.217 µM) | 32 µg/mL |  |  |  |  | MIC K. pneumoniae 067 (Klebsiella pneumoniae): 32 µg/mL (≈ 27.8 µM); MIC E. coli 059 (Escherichia coli): 1 µg/mL (≈ 0.868 µM); MIC E. coli 060 (Escherichia coli): 5 µg/mL (≈ 4.34 µM) |
| CC(C)Cc1ccc(C[C@H]2NC(=O)[C@H](CCN)NC(=O)[C@@H](NC(=O)[C@H](CN)NC(=O)[C@@H](NC(=O)C3CNCC(CC(C)C)C3)C(C)O)CCNC(=O)[C@H]([C@@H](C)O)NC(=O)[C@H](CCN)NC(=O)[C@H](CCN)NC(=O)[C@H](CC(C)C)NC2=O)cc1 (single isomer, unassigned; isomer 2) [Example 25, (Ttrans-5-(isobutyl-piperidine)-3-carbonyl L-Thr-L-Dap-polymyxin [D-(4-isobutyl Phe)]-6]heptapeptide isomer 2] |  | 2 µg/mL (≈ 1.71 µM) |  | 1 µg/mL (≈ 0.853 µM) |  | 0.25 µg/mL (≈ 0.213 µM) | 1 µg/mL (≈ 0.853 µM) | 0.5 µg/mL (≈ 0.426 µM) | 0.5 µg/mL (≈ 0.426 µM) | 1 µg/mL (≈ 0.853 µM) | 1 µg/mL (≈ 0.853 µM) | 1 µg/mL (≈ 0.853 µM) |  |  | 0.5 µg/mL (≈ 0.426 µM) | 20 µg/mL | 2 µg/mL (≈ 1.71 µM) | 0.5 µg/mL (≈ 0.426 µM) |  |  |  |
| CC(C)C[C@@H]1NC(=O)[C@@H](CC2CCCCC2)NC(=O)[C@H](CCN)NC(=O)[C@@H](NC(=O)[C@H](CN)NC(=O)[C@@H](NC(=O)CC(N)C2CCCCC2)C(C)O)CCNC(=O)[C@H]([C@@H](C)O)NC(=O)[C@H](CCN)NC(=O)[C@H](CCN)NC1=O (single isomer, unassigned; isomer 2) [Example 33, 3-amino-3-cyclohexylpropanoyl L-Thr-L-Dap-polymyxin [D-cyclohexylalanine]-6 heptapeptide. Isomer 2] |  | 64 µg/mL (≈ 57.7 µM) |  | 2 µg/mL (≈ 1.8 µM) |  | 0.03 µg/mL (≈ 0.0271 µM) | 2 µg/mL (≈ 1.8 µM) | 16 µg/mL (≈ 14.4 µM) | 0.25 µg/mL (≈ 0.226 µM) | 8 µg/mL (≈ 7.22 µM) | 8 µg/mL (≈ 7.22 µM) | 0.25 µg/mL (≈ 0.226 µM) | 64 µg/mL (≈ 57.7 µM) | 32 µg/mL (≈ 28.9 µM) | 0.25 µg/mL (≈ 0.226 µM) | 75 µg/mL | 0.5 µg/mL (≈ 0.451 µM) | 0.125 µg/mL (≈ 0.113 µM) | 0.5 µg/mL (≈ 0.451 µM) | 0.125 µg/mL (≈ 0.113 µM) |  |
| CC(C)C[C@@H]1NC(=O)[C@@H](CC2CCCCC2)NC(=O)[C@H](CCN)NC(=O)[C@@H](NC(=O)[C@H](CN)NC(=O)[C@@H](NC(=O)C(CN)Cc2ccccc2)C(C)O)CCNC(=O)[C@H]([C@@H](C)O)NC(=O)[C@H](CCN)NC(=O)[C@H](CCN)NC1=O (single isomer, unassigned; isomer 2) [Example 34, 3-amino-2-benzylpropanoyl L-Thr-L-Dap-polymyxin [D-cyclohexylalanine]-6 heptapeptide. Isomer 2] |  | 32 µg/mL (≈ 28.7 µM) |  | 4 µg/mL (≈ 3.58 µM) |  | 0.125 µg/mL (≈ 0.112 µM) | 2 µg/mL (≈ 1.79 µM) | 16 µg/mL (≈ 14.3 µM) | 0.25 µg/mL (≈ 0.224 µM) | 4 µg/mL (≈ 3.58 µM) | 4 µg/mL (≈ 3.58 µM) | 0.25 µg/mL (≈ 0.224 µM) | 32 µg/mL (≈ 28.7 µM) | 16 µg/mL (≈ 14.3 µM) | 0.125 µg/mL (≈ 0.112 µM) | 99 µg/mL | 0.25 µg/mL (≈ 0.224 µM) | 0.06 µg/mL (≈ 0.0537 µM) | 0.125 µg/mL (≈ 0.112 µM) | 0.125 µg/mL (≈ 0.112 µM) |  |
| CC(C)C[C@@H]1NC(=O)[C@@H](CC2CCCCC2)NC(=O)[C@H](CCN)NC(=O)[C@@H](NC(=O)[C@H](CN)NC(=O)[C@@H](NC(=O)C(CCN)Cc2ccccc2)C(C)O)CCNC(=O)[C@H]([C@@H](C)O)NC(=O)[C@H](CCN)NC(=O)[C@H](CCN)NC1=O (single isomer, unassigned; isomer 2) [Example 35, 4-amino-2-benzylbutanoyl L-Thr-L-Dap-polymyxin [D-cyclohexylalanine]-6 heptapeptide. Isomer 2] |  | 16 µg/mL (≈ 14.2 µM) |  | 0.5 µg/mL (≈ 0.442 µM) |  | 0.125 µg/mL (≈ 0.111 µM) | 4 µg/mL (≈ 3.54 µM) | 16 µg/mL (≈ 14.2 µM) | 0.25 µg/mL (≈ 0.221 µM) | 1 µg/mL (≈ 0.885 µM) | 2 µg/mL (≈ 1.77 µM) | 0.25 µg/mL (≈ 0.221 µM) | >64 µg/mL | 64 µg/mL (≈ 56.6 µM) | 0.5 µg/mL (≈ 0.442 µM) | 152 µg/mL | 0.25 µg/mL (≈ 0.221 µM) | 0.25 µg/mL (≈ 0.221 µM) | 0.06 µg/mL (≈ 0.0531 µM) | 0.06 µg/mL (≈ 0.0531 µM) |  |
